Measurements as given in patent US11459336B2, “Pyrazine carbamates and their use as GluN2B receptor modulators” (JANSSEN PHARMACEUTICA NV, priority 2019, dated 2022).

The compounds below were run against T1, human GluN1/GluN2B NMDA receptors (Homo sapiens, UniProt Q05586+Q13224) (assay: Calcium flux (FLIPR) assay on cloned human GluN1/GluN2B ion channels expressed in mammalian cells, standard assay). Conditions: glutamate ~EC40, 10 μM glycine, stable cell line with Tet-On induced expression.
T1 construct: expressed in transfected cells
T1 sequence (Q13224 27-1484, other chains not shown): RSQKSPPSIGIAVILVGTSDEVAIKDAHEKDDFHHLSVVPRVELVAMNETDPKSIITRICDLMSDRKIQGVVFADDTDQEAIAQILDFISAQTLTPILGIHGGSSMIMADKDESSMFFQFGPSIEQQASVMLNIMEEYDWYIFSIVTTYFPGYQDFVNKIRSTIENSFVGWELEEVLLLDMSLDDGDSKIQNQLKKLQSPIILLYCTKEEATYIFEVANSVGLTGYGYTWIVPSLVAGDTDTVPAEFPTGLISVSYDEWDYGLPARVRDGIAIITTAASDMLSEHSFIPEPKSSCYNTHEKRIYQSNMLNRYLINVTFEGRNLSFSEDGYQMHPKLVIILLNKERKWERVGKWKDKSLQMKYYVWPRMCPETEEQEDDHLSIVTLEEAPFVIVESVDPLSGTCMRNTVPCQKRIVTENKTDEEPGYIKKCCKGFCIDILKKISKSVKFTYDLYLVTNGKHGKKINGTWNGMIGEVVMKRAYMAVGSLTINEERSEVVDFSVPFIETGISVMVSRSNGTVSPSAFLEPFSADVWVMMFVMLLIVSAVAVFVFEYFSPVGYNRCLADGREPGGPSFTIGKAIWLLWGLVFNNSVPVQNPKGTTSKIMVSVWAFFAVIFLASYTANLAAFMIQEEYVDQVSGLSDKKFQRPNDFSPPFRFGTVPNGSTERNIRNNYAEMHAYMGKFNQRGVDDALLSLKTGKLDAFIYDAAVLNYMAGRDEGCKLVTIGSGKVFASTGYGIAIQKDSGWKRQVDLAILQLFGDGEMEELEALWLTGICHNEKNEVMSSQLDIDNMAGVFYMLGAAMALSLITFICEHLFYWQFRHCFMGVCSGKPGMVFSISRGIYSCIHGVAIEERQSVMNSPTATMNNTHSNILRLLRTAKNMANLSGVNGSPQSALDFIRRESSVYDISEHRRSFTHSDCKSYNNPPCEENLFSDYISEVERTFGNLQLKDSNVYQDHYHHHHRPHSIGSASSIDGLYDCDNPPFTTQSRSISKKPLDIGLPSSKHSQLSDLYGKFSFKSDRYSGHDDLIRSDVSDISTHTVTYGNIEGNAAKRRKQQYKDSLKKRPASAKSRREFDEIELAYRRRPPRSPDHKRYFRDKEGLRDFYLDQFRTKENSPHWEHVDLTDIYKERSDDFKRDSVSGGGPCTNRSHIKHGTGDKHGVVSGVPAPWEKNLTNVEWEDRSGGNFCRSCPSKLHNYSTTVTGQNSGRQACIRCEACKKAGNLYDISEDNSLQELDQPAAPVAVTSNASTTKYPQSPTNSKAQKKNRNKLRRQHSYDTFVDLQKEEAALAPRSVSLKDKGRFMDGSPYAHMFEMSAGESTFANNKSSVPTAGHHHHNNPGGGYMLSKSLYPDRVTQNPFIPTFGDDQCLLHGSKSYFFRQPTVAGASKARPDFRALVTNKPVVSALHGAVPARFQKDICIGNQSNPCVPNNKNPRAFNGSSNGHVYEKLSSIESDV
Type: cell-based
Method: (§1) NMDA receptors are ion channels that are highly permeable to Ca^2+ ions, rendering it possible to monitor NMDA receptor function using cell-based calcium flux assay. In this assay, co-agonists glutamate and glycine are added to cells heterologously expressing human GluN1/GluN2B NMDA receptors to initiate cellular Ca^2+ influx. The time course of the changes in intracellular calcium is measured using a fluorescent dye and a FLIPR (Fluorometric Imaging Plate Reader) device.
(§2) Twenty four hours before measurements, the expression of the NMDA receptors in the stable cell line is induced with Tet-On inducible system in the presence of a non-selective NMDA receptor blocker. On the day of the experiment, cell culture media is carefully washed and the cells are loaded with Calcium 5 Dye Kit (Molecular Devices) in dye loading buffer containing 137 mM NaCl, 4 mM KCl, 2 mM CaCl2, 0.5 mM MgCl2 (standard assay) or 1.5 mM MgCl2 (HTS assay), 10 mM HEPES and 5 mM D-glucose; pH 7.4. After 1 h incubation at the room temperature, the dye is washed away with the assay buffer (137 mM NaCl (standard assay) or 150 mM (HTS assay), 4 mM KCl (standard assay) or 3 mM (HTS assay), 2 mM CaCl2, 0.01 mM EDTA, 10 mM HEPES and 5 mM D-glucose; pH 7.4) In the FLIPR TETRA reader, various concentrations of the test compounds are added to the cells for 5 min while fluorescence is monitored to detect potential agonist activity. Next, co-agonists, glutamate and glycine are added for another 5 minutes. The concentration of glutamate corresponding to ˜EC40 (standard assay) or EC40 (HTS assay) is used to maximize the assay's signal window and ability to detect NMDA receptor antagonists and negative allosteric modulators. A saturating concentration (10 μM) of glycine is also present in the assay. A non-selective NMDA receptor antagonist, (+)MK-801 is used as a positive control for antagonist activity. The fluorescent signal in the presence of test compounds is quantified and normalized to the signal defined by the appropriate control wells.
For `CN(C)C(=O)C1CN(Cc2cncc(-c3ccc(F)c(C(F)F)c3)n2)C(=O)O1` (racemic) [Example 65, (R/S)-3-[[6-[3-(Difluoromethyl)-4-fluoro-phenyl]pyrazin-2-yl]methyl]-N,N-dimethyl-2-oxo-oxazolidine-5-carboxamide], the IC50 was > 3000 nM.
`CNC(=O)C1CN(Cc2cncc(-c3ccc(F)c(OC(F)F)c3)n2)C(=O)O1` (racemic) [Example 60, (R/S)-3-[[6-[3-(Difluoromethoxy)-4-fluoro-phenyl]pyrazin-2-yl]methyl]-N-methyl-2-oxo-oxazolidine-5-carboxamide] gave an IC50 of 5390 nM.
`CN(C)C(=O)C1CN(Cc2cncc(-c3ccc(F)c(C(C)(F)F)c3)n2)C(=O)O1` (racemic) [Example 62, (R/S)-3-[[6-[3-(1,1-Difluoroethyl)-4-fluoro-phenyl]pyrazin-2-yl]methyl]-N,N-dimethyl-2-oxo-oxazolidine-5-carboxamide] was tested, and the IC50 was 3680 nM.
For `O=C1OC(C(=O)N2CCC2)CN1Cc1cncc(-c2ccc(F)c(C(F)F)c2)n1` (racemic) [Example 58, (R/S)-5-(Azetidine-1-carbonyl)-3-[[6-[3-(difluoromethyl)-4-fluoro-phenyl]pyrazin-2-yl]methyl]oxazolidin-2-one], the IC50 was > 3000 nM.
With `CNC(=O)C1CN(Cc2cncc(-c3ccc(F)c(C(C)(F)F)c3)n2)C(=O)O1` (racemic) [Example 63, (R/S)-3-[[6-[3-(1,1-Difluoroethyl)-4-fluoro-phenyl]pyrazin-2-yl]methyl]-N-methyl-2-oxo-oxazolidine-5-carboxamide] the IC50 was > 3000 nM.
In the case of `CNC(=O)C1CN(Cc2cncc(-c3ccc(Cl)c(OC(F)F)c3)n2)C(=O)O1` (racemic) [Example 56, (R/S)-3-[[6-[4-Chloro-3-(difluoromethoxy)phenyl]pyrazin-2-yl]methyl]-N-methyl-2-oxo-oxazolidine-5-carboxamide], the IC50 was 2050 nM.
With `CC(F)(F)c1cc(-c2cncc(CN3CC(C(=O)N4CCC4)OC3=O)n2)ccc1F` (racemic) [Example 64, (R/S)-5-(Azetidine-1-carbonyl)-3-[[6-[3-(1,1-difluoroethyl)-4-fluoro-phenyl]pyrazin-2-yl]methyl]oxazolidin-2-one] the IC50 was > 3000 nM.
For `CN(C)C(=O)C1CN(Cc2cncc(-c3ccc(F)c(OC(F)F)c3)n2)C(=O)O1` (racemic) [Example 66, (R/S)-3-[[6-[3-(Difluoromethoxy)-4-fluoro-phenyl]pyrazin-2-yl]methyl]-N,N-dimethyl-2-oxo-oxazolidine-5-carboxamide], the IC50 was 141 nM.
Compound `O=C1OC(C(=O)N2CCC2)CN1Cc1cncc(-c2ccc(F)c(OC(F)F)c2)n1` (racemic) [Example 61, (R/S)-5-(Azetidine-1-carbonyl)-3-[[6-[3-(difluoromethoxy)-4-fluoro-phenyl]pyrazin-2-yl]methyl]oxazolidin-2-one] has an IC50 of 5740 nM.
For `CN(C)C(=O)C1CN(Cc2cncc(-c3ccc(Cl)c(OC(F)F)c3)n2)C(=O)O1` (racemic) [Example 55, (R/S)-3-[[6-[4-Chloro-3-(difluoromethoxy)phenyl]pyrazin-2-yl]methyl]-N,N-dimethyl-2-oxo-oxazolidine-5-carboxamide], the IC50 was 1390 nM.

Each compound was assayed against T2, human GluN1/GluN2B NMDA receptors (Homo sapiens, UniProt Q13224) in the same assay as above. Conditions: glutamate ~EC40, 10 μM glycine, stable cell line with Tet-On induced expression.
T2 construct: expressed in transfected cells
T2 sequence (Q13224 27-1484, other chains not shown): as above
Type: cell-based
Method: as §1, §2
In the case of `Cc1ncc(-c2ccc(F)c(C(F)F)c2)nc1CN1CC2(CC2)OC1=O` [Example 10, 5-[[6-[3-(Difluoromethyl)-4-fluoro-phenyl]-3-methyl-pyrazin-2-yl]methyl]-7-oxa-5-azaspiro[2.4]heptan-6-one], the IC50 was 37 nM.
`CC1(C)CN(Cc2cncc(-c3ccc(F)c(C(F)F)c3)n2)C(=O)O1` [Example 4, 3-[[6-[3-(Difluoromethyl)-4-fluoro-phenyl]pyrazin-2-yl]methyl]-5,5-dimethyl-oxazolidin-2-one] gave an IC50 of 1360 nM.
`O=C1OCCN1Cc1cncc(-c2ccc(F)c(C(F)F)c2)n1` [Example 1, 3-[[6-[3-(Difluoromethyl)-4-fluoro-phenyl]pyrazin-2-yl]methyl]oxazolidin-2-one] gave an IC50 of 195 nM.
`Cc1ncc(-c2ccc(F)c(C(F)F)c2)nc1CN1C[C@@H](C)OC1=O` [Example 13, (5R)-3-[[6-[3-(Difluoromethyl)-4-fluoro-phenyl]-3-methyl-pyrazin-2-yl]methyl]-5-methyl-oxazolidin-2-one] was tested, and the IC50 was 45 nM.
For `C[C@@H]1CN(Cc2cncc(-c3ccc(Cl)c(OC(F)F)c3)n2)C(=O)O1` [Example 31, (5R)-3-[[6-[4-Chloro-3-(difluoromethoxy)phenyl]pyrazin-2-yl]methyl]-5-methyl-oxazolidin-2-one], the IC50 was 20 nM.
With `Cc1ncc(-c2ccc(F)c(OC(F)F)c2)nc1CN1C[C@H](C)OC1=O` [Example 27, (5S)-3-[[6-[3-(Difluoromethoxy)-4-fluoro-phenyl]-3-methyl-pyrazin-2-yl]methyl]-5-methyl-oxazolidin-2-one] the IC50 was 48 nM.
Compound `Cc1ncc(-c2cccc(C(C)(F)F)c2)nc1CN1CCCOC1=O` [Example 45, 3-[[6-[3-(1,1-Difluoroethyl)phenyl]-3-methyl-pyrazin-2-yl]methyl]-1,3-oxazinan-2-one] has an IC50 of 127 nM.
In the case of `CC(F)(F)c1cccc(-c2cncc(CN3CCC4(CC4)OC3=O)n2)c1` [Example 48, 6-[[6-[3-(1,1-Difluoroethyl)phenyl]pyrazin-2-yl]methyl]-8-oxa-6-azaspiro[2.5]octan-7-one], the IC50 was 124 nM.
With `O=C1OCCN1Cc1cncc(-c2ccc(F)c(OC(F)F)c2)n1` [Example 2, 3-[[6-[3-(Difluoromethoxy)-4-fluoro-phenyl]pyrazin-2-yl]methyl]oxazolidin-2-one] the IC50 was 73 nM.
Work on `Cc1ncc(-c2ccc(Cl)c(OC(F)F)c2)nc1CN1CC2(CC2)OC1=O` [Example 36, 5-[[6-[4-Chloro-3-(difluoromethoxy)phenyl]-3-methyl-pyrazin-2-yl]methyl]-7-oxa-5-azaspiro[2.4]heptan-6-one] yielded an IC50 of 113 nM.
Compound `Cc1ncc(-c2cccc(C(C)(F)F)c2)nc1CN1CC2(CC2)OC1=O` [Example 43, 5-[[6-[3-(1,1-Difluoroethyl)phenyl]-3-methyl-pyrazin-2-yl]methyl]-7-oxa-5-azaspiro[2.4]heptan-6-one] has an IC50 of 203 nM.
`CC1(C)CN(Cc2cncc(-c3ccc(F)c(OC(F)F)c3)n2)C(=O)O1` [Example 17, 3-[[6-[3-(Difluoromethoxy)-4-fluoro-phenyl]pyrazin-2-yl]methyl]-5,5-dimethyl-oxazolidin-2-one] gave an IC50 of 1140 nM.
Work on `C[C@H]1COC(=O)N1Cc1cncc(-c2ccc(Cl)c(OC(F)F)c2)n1` [Example 34, (4S)-3-[[6-[4-Chloro-3-(difluoromethoxy)phenyl]pyrazin-2-yl]methyl]-4-methyl-oxazolidin-2-one] yielded an IC50 of 86 nM.
`C[C@H]1COC(=O)N1Cc1cncc(-c2ccc(F)c(C(C)(F)F)c2)n1` [Example 47, (4S)-3-[[6-[3-(1,1-Difluoroethyl)-4-fluoro-phenyl]pyrazin-2-yl]methyl]-4-methyl-oxazolidin-2-one] gave an IC50 of 624 nM.
Work on `Cc1ncc(-c2ccc(F)c(OC(F)F)c2)nc1CN1CCC2(CC2)OC1=O` [Example 54, 6-[[6-[3-(Difluoromethoxy)-4-fluoro-phenyl]-3-methyl-pyrazin-2-yl]methyl]-8-oxa-6-azaspiro[2.5]octan-7-one] yielded an IC50 of 74 nM.
Work on `C[C@@H]1COC(=O)N1Cc1cncc(-c2ccc(F)c(C(C)(F)F)c2)n1` [Example 46, (4R)-3-[[6-[3-(1,1-Difluoroethyl)-4-fluoro-phenyl]pyrazin-2-yl]methyl]-4-methyl-oxazolidin-2-one] yielded an IC50 of 166 nM.
In the case of `C[C@H]1COC(=O)N1Cc1cncc(-c2ccc(F)c(OC(F)F)c2)n1` [Example 19, (4S)-3-[[6-[3-(Difluoromethoxy)-4-fluoro-phenyl]pyrazin-2-yl]methyl]-4-methyl-oxazolidin-2-one], the IC50 was 291 nM.
`C[C@@H]1COC(=O)N1Cc1cncc(-c2ccc(F)c(C(F)F)c2)n1` [Example 7, (4R)-3-[[6-[3-(Difluoromethyl)-4-fluoro-phenyl]pyrazin-2-yl]methyl]-4-methyl-oxazolidin-2-one] gave an IC50 of 288 nM.
Work on `C[C@H]1CN(Cc2cncc(-c3cccc(C(C)(F)F)c3)n2)C(=O)O1` [Example 41, (5S)-3-[[6-[3-(1,1-Difluoroethyl)phenyl]pyrazin-2-yl]methyl]-5-methyl-oxazolidin-2-one] yielded an IC50 of 167 nM.
